LD50 and MIC data for seven molecules are collected here from ChEMBL document CHEMBL3792286, “A convenient and efficient approach to polyfluorosalicylic acids and their tuberculostatic activity” (Bioorg Med Chem Lett, 2016).

The nature of series [1]: Toxicity in healthy mouse administered as single peroral dose measured after 14 days. The series is classed as organism-based. As to conditions: in vivo, po.
Series [2] deals with Mycobacterium tuberculosis. The experiment in a line: microbe, parasite or virus in culture. As to conditions: H37Rv, 240 h.
Description: Tuberculostatic activity against Mycobacterium tuberculosis H37Rv assessed as induction of penetration size stunting incubated for 10 days by vertical diffusion method
Series [3] has as its system Mycobacterium avium. The series is classed as functional. The conditions noted are these: 240 h.
The test system of series [4] is Mycolicibacter terrae. The class given is functional. As to conditions: 240 h.
In series [5] the test system is Mycobacterium tuberculosis. The experiment in a line: Antimicrobial activity against Mycobacterium tuberculosis. The class given is functional.

Converted amounts (≈) assume the structure as drawn.

For orientation: LD50 means the dose expected to kill half of the subjects tested. Higher therefore signals lower toxicity. In the case of `O=C(O)c1cc(F)c(F)c(F)c1O`, in series [1], the LD50 at 336 h was > 100 mg/kg. For the same molecule, the MIC in series [2] came to 6.5 µg/mL (≈ 33.8 µM).

In the case of `NNC(=O)c1ccncc1` [ISONIAZID], the MIC in series [3], in series [4] and in series [2] was 0.1 µg/mL (≈ 0.729 µM) throughout. For the same molecule, the LD50 at 336 h in series [1] was determined as 100 mg/kg.

Take `Nc1ccc(C(=O)O)c(O)c1` [AMINOSALICYLIC ACID]: the MIC in series [3] is 32 µg/mL (≈ 209 µM); in series [5], > 250 µg/mL; in series [2] it was 0.3 µg/mL (≈ 1.96 µM). In series [1], this molecule registered an LD50 at 336 h of 4000 mg/kg.

Take `O=C(O)c1cc(F)c(F)cc1O`: the MIC in series [3], in series [4] and in series [2] was 0.7 µg/mL (≈ 4.02 µM) throughout. Also, the LD50 at 336 h in series [1] was > 300 mg/kg.

Take `CC1COc2c(N3CCN(C)CC3)c(F)cc3c(=O)c(C(=O)O)cn1c23` (stereo not given) [OFLOXACIN]: the MIC in series [3], in series [4] and in series [2] was 0.1 µg/mL (≈ 0.277 µM) each time.

Turning to `O=C(O)c1ccc(F)c(F)c1O`, the MIC in series [3], in series [4] and in series [2] was 1.5 µg/mL (≈ 8.62 µM) throughout. The 50% lethal dose (LD50) at 336 h in series [1] was > 150 mg/kg.

Take `O=C(O)c1c(O)c(F)c(F)c(F)c1F`: the MIC in series [3], in series [4] and in series [2] was 0.7 µg/mL (≈ 3.33 µM) throughout. Moreover, the LD50 at 336 h in series [1] was found to be 100 mg/kg.
